Drawing on ChEMBL document CHEMBL4421717, “Antagonists and agonists of bitter taste receptors and uses thereof” (2012), this text covers IC50 and Activity for two compounds.

What all share (format): functional, cell-based
Assay [1] has as its target T1, Taste receptor type 2 member 46 (Homo sapiens, UniProt P59540).
T1 sequence (P59540 whole entry): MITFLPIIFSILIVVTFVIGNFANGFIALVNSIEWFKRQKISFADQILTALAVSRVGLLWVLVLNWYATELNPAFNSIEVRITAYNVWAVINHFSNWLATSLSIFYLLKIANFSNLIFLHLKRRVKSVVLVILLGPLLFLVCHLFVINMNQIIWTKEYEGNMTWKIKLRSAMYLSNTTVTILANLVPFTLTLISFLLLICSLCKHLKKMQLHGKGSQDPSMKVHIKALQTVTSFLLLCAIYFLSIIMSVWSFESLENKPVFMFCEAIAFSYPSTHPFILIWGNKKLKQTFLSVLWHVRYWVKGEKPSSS
The assay can be described thus: Antagonist activity at recombinant human N-terminal rat ST3 receptor-fused TAS2R46 expressed in HEK293T cells co-expressing Galpha16gust44 assessed as inhibition of 300 uM denatonium benzoate-induced intracellular calcium level 100 uM by FLIPR assay. For orientation: A change in cytosolic calcium serves as a functional read-out for many receptors and channels.

For assay [2], the target named is T1, Taste receptor type 2 member 46. As to the kind of experiment: Antagonist activity at recombinant human N-terminal rat ST3 receptor-fused TAS2R46 expressed in HEK293T cells co-expressing Galpha16gust44 assessed as inhibition of 100 uM absinthin-induced intracellular calcium level 100 uM by FLIPR assay.
The target of assay [3] is Taste receptor type 2 member 40 (Homo sapiens) (UniProt P59535). The assay can be described thus: Agonist activity at recombinant human N-terminal rat ST3 receptor-fused TAS2R40 expressed in HEK293T cells co-expressing Galpha16gust44 assessed as effect on intracellular calcium level at 100 uM by FLIPR assay.
Assay [4] has as its target T2, Taste receptor type 2 member 16 (Homo sapiens) (UniProt Q9NYV7).
T2 sequence (whole entry): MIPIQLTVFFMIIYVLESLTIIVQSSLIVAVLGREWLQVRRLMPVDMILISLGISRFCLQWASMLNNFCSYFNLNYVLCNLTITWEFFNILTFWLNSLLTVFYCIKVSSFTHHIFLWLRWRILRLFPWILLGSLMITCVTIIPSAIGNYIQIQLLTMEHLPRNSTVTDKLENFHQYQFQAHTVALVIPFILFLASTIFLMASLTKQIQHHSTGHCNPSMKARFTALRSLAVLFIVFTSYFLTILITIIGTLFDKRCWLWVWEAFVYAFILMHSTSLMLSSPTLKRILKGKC
The assay can be described thus: Agonist activity at recombinant human N-terminal rat ST3 receptor-fused TAS2R16 expressed in HEK293T cells co-expressing Galpha16gust44 assessed as effect on intracellular calcium level at 100 uM by FLIPR assay.

Assay [5] deals with Taste receptor type 2 member 41 (Homo sapiens) (UniProt P59536). The assay can be described thus: Agonist activity at recombinant human N-terminal rat ST3 receptor-fused TAS2R41 expressed in HEK293T cells co-expressing Galpha16gust44 assessed as effect on intracellular calcium level at 100 uM by FLIPR assay.
For assay [6], the target named is T3, Taste receptor type 2 member 20 (Homo sapiens) (UniProt P59543).
T3 sequence (whole entry): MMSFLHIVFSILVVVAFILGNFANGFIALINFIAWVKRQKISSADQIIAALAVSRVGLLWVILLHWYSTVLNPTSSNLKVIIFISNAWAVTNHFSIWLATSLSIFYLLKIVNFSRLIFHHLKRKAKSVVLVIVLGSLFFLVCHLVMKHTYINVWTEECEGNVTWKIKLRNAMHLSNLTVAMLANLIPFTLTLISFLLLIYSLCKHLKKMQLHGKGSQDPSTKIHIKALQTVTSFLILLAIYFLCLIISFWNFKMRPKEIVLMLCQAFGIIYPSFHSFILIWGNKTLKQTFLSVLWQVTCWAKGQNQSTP
As to the kind of experiment: Agonist activity at recombinant human N-terminal rat ST3 receptor-fused TAS2R49 expressed in HEK293T cells co-expressing Galpha16gust44 assessed as effect on intracellular calcium level at 100 uM by FLIPR assay.

Assay [7] concerns the target T4, Taste receptor type 2 member 46 (Homo sapiens) (UniProt P59540).
T4 sequence (whole entry): T1 sequence (P59540 whole entry)
The assay can be described thus: Competitive antagonist activity at recombinant human N-terminal rat ST3 receptor-fused TAS2R46 expressed in HEK293T cells co-expressing Galpha16gust44 assessed as inhibition strychnine-induced intracellular calcium level by measuring strychnine induced maximum signal amplitude at 10 uM by FLIPR assay (reference value: 0.42 +/- 0.09 au)).

Assay [8] concerns the target Taste receptor type 2 member 45 (Homo sapiens) (UniProt P59539). As to the kind of experiment: Agonist activity at recombinant human N-terminal rat ST3 receptor-fused TAS2R45 expressed in HEK293T cells co-expressing Galpha16gust44 assessed as effect on intracellular calcium level at 100 uM by FLIPR assay.
In assay [9] the target is Taste receptor type 2 member 5 (Homo sapiens) (UniProt Q9NYW4). The assay can be described thus: Activity at recombinant human N-terminal rat ST3 receptor-fused TAS2R5 expressed in HEK293T cells co-expressing Galpha16gust44 assessed as increase in denatonium saccharide-induced intracellular calcium level at 100 uM by FLIPR assay.
In assay [10] the target is T5, Taste receptor type 2 member 50 (Homo sapiens) (UniProt P59544).
T5 sequence (whole entry): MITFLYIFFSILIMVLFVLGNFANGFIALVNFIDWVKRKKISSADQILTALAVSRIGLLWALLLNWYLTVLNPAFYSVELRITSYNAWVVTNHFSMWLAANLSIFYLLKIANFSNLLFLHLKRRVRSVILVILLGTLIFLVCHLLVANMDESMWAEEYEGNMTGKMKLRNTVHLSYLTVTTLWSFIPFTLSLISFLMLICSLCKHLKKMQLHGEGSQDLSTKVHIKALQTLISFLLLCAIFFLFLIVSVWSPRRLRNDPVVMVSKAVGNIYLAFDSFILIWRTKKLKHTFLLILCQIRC
The assay can be described thus: Agonist activity at recombinant human N-terminal rat ST3 receptor-fused TAS2R50 expressed in HEK293T cells co-expressing Galpha16gust44 assessed as effect on intracellular calcium level at 100 uM by FLIPR assay.

Assay [11] deals with T6, Taste receptor type 2 member 4 (Homo sapiens) (UniProt Q9NYW5).
T6 sequence (whole entry): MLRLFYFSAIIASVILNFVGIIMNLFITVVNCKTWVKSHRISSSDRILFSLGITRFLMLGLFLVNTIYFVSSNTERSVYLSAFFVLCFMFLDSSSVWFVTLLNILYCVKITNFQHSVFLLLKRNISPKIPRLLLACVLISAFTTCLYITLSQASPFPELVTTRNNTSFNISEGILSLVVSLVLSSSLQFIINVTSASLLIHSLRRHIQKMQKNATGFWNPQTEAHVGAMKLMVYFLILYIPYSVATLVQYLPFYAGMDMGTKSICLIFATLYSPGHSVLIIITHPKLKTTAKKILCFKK
As to the kind of experiment: Agonist activity at recombinant human N-terminal rat ST3 receptor-fused TAS2R4 expressed in HEK293T cells co-expressing Galpha16gust44 assessed as effect on intracellular calcium level at 100 uM by FLIPR assay.

The target in assay [12] is T4, Taste receptor type 2 member 46 (Homo sapiens). The assay can be described thus: Competitive antagonist activity at recombinant human N-terminal rat ST3 receptor-fused TAS2R46 expressed in HEK293T cells co-expressing Galpha16gust44 assessed as inhibition strychnine-induced intracellular calcium level by measuring strychnine induced maximum signal amplitude at 100 uM by FLIPR assay (reference value: 0.42 +/- 0.09 au)).

Calls of active or inactive are those of the source. The calls are words filed in the database; no cut-off is given here.

Sequence of Taste receptor type 2 member 41 (Homo sapiens) (P59536 whole entry, the tested form may be a part): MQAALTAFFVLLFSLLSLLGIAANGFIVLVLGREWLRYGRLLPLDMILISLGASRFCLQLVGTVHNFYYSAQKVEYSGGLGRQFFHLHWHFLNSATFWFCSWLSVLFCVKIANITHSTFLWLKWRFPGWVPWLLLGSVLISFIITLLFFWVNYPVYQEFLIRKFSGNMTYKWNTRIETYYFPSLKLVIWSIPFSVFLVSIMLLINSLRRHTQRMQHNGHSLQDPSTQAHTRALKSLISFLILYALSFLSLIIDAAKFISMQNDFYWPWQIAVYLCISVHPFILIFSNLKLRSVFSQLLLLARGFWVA
Sequence of Taste receptor type 2 member 45 (Homo sapiens) (P59539 whole entry, the tested form may be a part): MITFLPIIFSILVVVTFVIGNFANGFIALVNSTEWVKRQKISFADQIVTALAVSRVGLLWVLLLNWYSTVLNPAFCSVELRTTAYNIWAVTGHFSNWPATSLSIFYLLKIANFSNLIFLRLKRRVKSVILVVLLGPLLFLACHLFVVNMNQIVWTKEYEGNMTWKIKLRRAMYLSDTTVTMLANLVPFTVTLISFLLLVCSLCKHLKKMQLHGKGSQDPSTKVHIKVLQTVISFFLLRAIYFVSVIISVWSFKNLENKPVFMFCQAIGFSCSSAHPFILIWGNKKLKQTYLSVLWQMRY
Sequence of Taste receptor type 2 member 40 (Homo sapiens) (P59535 whole entry, the tested form may be a part): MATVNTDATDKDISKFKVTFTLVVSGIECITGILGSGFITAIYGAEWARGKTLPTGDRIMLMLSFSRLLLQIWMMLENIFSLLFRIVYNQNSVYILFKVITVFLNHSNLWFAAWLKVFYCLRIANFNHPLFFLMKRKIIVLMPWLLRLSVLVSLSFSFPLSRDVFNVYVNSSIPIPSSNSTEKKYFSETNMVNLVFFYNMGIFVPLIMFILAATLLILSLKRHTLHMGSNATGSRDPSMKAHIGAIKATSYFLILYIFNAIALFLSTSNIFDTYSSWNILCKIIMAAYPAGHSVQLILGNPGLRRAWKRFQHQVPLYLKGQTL
Sequence of Taste receptor type 2 member 5 (Homo sapiens) (Q9NYW4 whole entry, the tested form may be a part): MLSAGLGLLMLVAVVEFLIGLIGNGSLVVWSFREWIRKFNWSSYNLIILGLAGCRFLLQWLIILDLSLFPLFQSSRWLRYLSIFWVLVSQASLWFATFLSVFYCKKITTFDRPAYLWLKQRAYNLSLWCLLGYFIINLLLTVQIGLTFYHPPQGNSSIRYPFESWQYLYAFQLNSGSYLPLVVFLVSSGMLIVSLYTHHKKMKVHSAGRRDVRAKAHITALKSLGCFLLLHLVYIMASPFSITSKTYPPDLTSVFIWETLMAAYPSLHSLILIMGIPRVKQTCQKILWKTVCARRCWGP

As for `C/C1=C\C[C@H](O)[C@@H](C)C[C@H]2OC(=O)[C@@H](C)C2CC1` (some centres not stated), the IC50 (commonly the concentration needed to halve the response being measured) in assay [1] was 51.4 µM; in [2] it was 57.8 µM.
For the compound `C/C1=C\C[C@H](O)/C(C)=C/[C@H]2OC(=O)[C@@H](C)C2CC1` (some centres not stated), the outcome in [3], in assay [4], in [5], in assay [6], in assay [8] and in assay [10] was inactive. The values for the Activity in [7] and in [12] were 0.4 a.u and 0.34 a.u, respectively. In addition, the outcome in assay [9] and in [11] was Active.
